# Measurements published in ChEMBL document CHEMBL1759969 (Bioorg Med Chem Lett, 2011).
# Experiments:
# [1] = target: T1, Melatonin receptor type 1A (Homo sapiens, UniProt P48039); test: Displacement of 2-[125I]-iodomelatonin from human MT1 receptor expressed in HEK293 cells; format: cell-based
# [2] = target: T2, Melatonin receptor type 1B (Homo sapiens, UniProt P49286); test: Displacement of 2-[125I]-iodomelatonin from human MT2 receptor expressed in HEK293 cells; format: cell-based
# T2 sequence (P49286 whole entry): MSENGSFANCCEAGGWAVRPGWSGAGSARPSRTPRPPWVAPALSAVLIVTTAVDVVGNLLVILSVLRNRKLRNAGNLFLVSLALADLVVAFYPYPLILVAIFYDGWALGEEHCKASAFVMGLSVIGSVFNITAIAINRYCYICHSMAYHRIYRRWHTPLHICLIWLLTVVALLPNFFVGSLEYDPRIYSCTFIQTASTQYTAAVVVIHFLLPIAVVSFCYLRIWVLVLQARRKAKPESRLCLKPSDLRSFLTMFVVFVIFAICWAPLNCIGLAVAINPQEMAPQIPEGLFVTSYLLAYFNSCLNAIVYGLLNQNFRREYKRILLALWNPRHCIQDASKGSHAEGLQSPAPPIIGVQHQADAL
# [3] = target: T1, Melatonin receptor type 1A; test: Agonist activity at human MT1 receptor expressed in CHO cells by [35S]GTPgamma binding assay; format: functional, cell-based
# [4] = target: T2, Melatonin receptor type 1B; test: Agonist activity at human MT2 receptor expressed in CHO cells by [35S]GTPgamma binding assay; format: functional, cell-based
# Homo sapiens = organism: Homo sapiens; test: Selectivity ratio of Ki for human MT1 receptor to Ki for human MT2 receptor
# T1 sequence (P48039 whole entry): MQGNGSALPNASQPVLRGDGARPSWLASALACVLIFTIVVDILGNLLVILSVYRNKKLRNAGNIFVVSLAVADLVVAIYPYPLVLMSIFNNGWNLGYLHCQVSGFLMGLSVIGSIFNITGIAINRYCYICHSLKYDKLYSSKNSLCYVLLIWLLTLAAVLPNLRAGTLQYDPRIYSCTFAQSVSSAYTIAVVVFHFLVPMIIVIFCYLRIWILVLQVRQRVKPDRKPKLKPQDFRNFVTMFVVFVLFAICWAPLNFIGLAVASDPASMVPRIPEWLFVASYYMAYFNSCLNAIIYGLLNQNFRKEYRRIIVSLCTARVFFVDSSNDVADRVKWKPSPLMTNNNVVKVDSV
smiles,measurement,setting,value
COc1ccc2c(I)cn(CCNC(C)=O)c2n1,Ki,[1],16 nM
same,Ki,[2],5 nM
same,EC50,[3],32 nM
same,EC50,[4],11 nM
same,Ratio Ki,Homo sapiens,3.2
CCCC(=O)NCCn1ccc2ccc(OC)nc21,Ki,[2],0.3 nM
same,EC50,[4],0.7 nM
COc1ccc2c(CN3CCN(c4cccc(Cl)c4)CC3)cn(CCNC(C)=O)c2n1,Ki,[1],1210 nM
same,Ki,[2],929 nM
same,Ratio Ki,Homo sapiens,1.3
COc1ccc2c3c(n(CCNC(C)=O)c2n1)CCCC3,Ki,[1],9 nM
same,Ki,[2],0.68 nM
same,EC50,[3],16 nM
same,EC50,[4],1.3 nM
same,Ratio Ki,Homo sapiens,13.2
CCC(=O)NCCn1ccc2ccc(OC)nc21,Ki,[1],3.3 nM
same,Ki,[2],0.28 nM
same,EC50,[3],5.1 nM
same,EC50,[4],1.4 nM
same,Ratio Ki,Homo sapiens,11.8
COc1cnc2[nH]cc(CCNC(C)=O)c2c1,Ki,[2],117 nM
same,EC50,[4],380 nM
COc1ccc2c(C(=O)C(F)(F)F)cn(CCNC(C)=O)c2n1,Ki,[1],91 nM
same,Ki,[2],30 nM
same,EC50,[3],93 nM
same,EC50,[4],10 nM
same,Ratio Ki,Homo sapiens,3
COc1ccc2c(CN3CCOCC3)cn(CCNC(C)=O)c2n1,Ki,[1],> 10000 nM
same,Ki,[2],550 nM
same,Ratio Ki,Homo sapiens,> 20
COc1ccc2c(CN(C)C)cn(CCNC(C)=O)c2n1,Ki,[1],> 10000 nM
same,Ki,[2],> 10000 nM
COc1ccc2c(CN3CCC(C(=O)c4ccc(F)cc4)CC3)cn(CCNC(C)=O)c2n1,Ki,[1],9490 nM
same,Ki,[2],7440 nM
same,Ratio Ki,Homo sapiens,1.3
COc1ccc2c(CN(C)Cc3ccccc3)cn(CCNC(C)=O)c2n1,Ki,[1],10500 nM
same,Ki,[2],4010 nM
same,Ratio Ki,Homo sapiens,2.6
CNCc1cn(CCNC(C)=O)c2nc(OC)ccc12,Ki,[1],8300 nM
same,Ki,[2],1090 nM
same,Ratio Ki,Homo sapiens,7.6
COc1ccc2ccn(CCNC(C)=O)c2n1,Ki,[1],1.4 nM
same,Ki,[2],0.6 nM
same,EC50,[3],4 nM
same,EC50,[4],2.1 nM
same,Ratio Ki,Homo sapiens,2.3
COc1ccc2c(CN3CCCCC3)cn(CCNC(C)=O)c2n1,Ki,[1],510 nM
same,Ki,[2],742 nM
same,Ratio Ki,Homo sapiens,0.7
COc1ccc2[nH]cc(CCNC(C)=O)c2n1,Ki,[1],0.2 nM
same,Ki,[2],0.3 nM
same,EC50,[3],12 nM
same,EC50,[4],1.1 nM
same,Ratio Ki,Homo sapiens,0.7
